Patent US11427567B2, “Imidazolyl pyrimidinylamine compounds as CDK2 inhibitors” (Incyte Corporation, priority 2019, dated 2022)

These compounds were tested against CDK2/Cyclin E1 (Homo sapiens (Human), UniProt P24941) (assay: CDK2/Cyclin E1 HTRF enzyme activity assay (Example A)). Conditions: 1 mM ATP.
Assay type: biochemical
Method: Assays were conducted in white 384-well polystyrene plates in a final reaction volume of 8 μL. […] HTRF signals were read after 1 hour at room temperature on a PHERAstar FS plate reader (BMG Labtech). Data was analyzed with IDBS XLFit and GraphPad Prism 5.0 software using a three or four parameter dose response curve to determine IC50 for each compound.

Q: How did the IC50 turn out when `Cc1nc(CN2CC(C)(C)C2)ccc1-n1cnc(-c2nc(NC3CCN(S(C)(=O)=O)CC3)ncc2C(F)(F)F)c1` [Example 265, 4-(1-(6-((3,3-Dimethylazetidin-1-yl)methyl)-2-methylpyridin-3-yl)-1H-imidazol-4-yl)-N-(1-(methylsulfonyl)piperidin-4-yl)-5-(trifluoromethyl)pyrimidin-2-amine] was run?
A: ≤ 50 nM

Q: `CNCc1ccc(-n2cnc(-c3nc(NC4CCN(S(C)(=O)=O)CC4)ncc3C(F)(F)F)c2)c(F)c1` [Example 266, 4-(1-(2-Fluoro-4-((methylamino)methyl)phenyl)-1H-imidazol-4-yl)-N-(1-(methylsulfonyl)piperidin-4-yl)-5-(trifluoromethyl)pyrimidin-2-amine] was tested. Which IC50 did it give?
A: ≤ 50 nM

Q: How did the IC50 turn out when `CN(C)Cc1ccc(-n2cnc(-c3nc(NC4CCN(S(C)(=O)=O)CC4)ncc3C(F)(F)F)c2)c(F)c1` [Example 267, 4-(1-(4-((Dimethylamino)methyl)-2-fluorophenyl)-1H-imidazol-4-yl)-N-(1-(methylsulfonyl)piperidin-4-yl)-5-(trifluoromethyl)pyrimidin-2-amine] was run?
A: ≤ 50 nM

Q: With `CNCc1ccc(-n2cnc(-c3nc(NC4CCN(S(C)(=O)=O)CC4)ncc3C(F)(F)F)c2)c(Cl)c1F` [Example 268, 4-(1-(2-Chloro-3-fluoro-4-((methylamino)methyl)phenyl)-1H-imidazol-4-yl)-N-(1-(methylsulfonyl)piperidin-4-yl)-5-(trifluoromethyl)pyrimidin-2-amine] as the compound, how does the IC50 read?
A: ≤ 50 nM

Q: With `CS(=O)(=O)N1CCC(Nc2ncc(C(F)(F)F)c(-c3cn(-c4ccc(CN5CCC5)c(F)c4Cl)cn3)n2)CC1` [Example 269, 4-(1-(4-(Azetidin-1-ylmethyl)-2-chloro-3-fluorophenyl)-1H-imidazol-4-yl)-N-(1-(methylsulfonyl)piperidin-4-yl)-5-(trifluoromethyl)pyrimidin-2-amine] as the compound, how does the IC50 read?
A: ≤ 50 nM

Q: For `CC1CN(Cc2ccc(-n3cnc(-c4nc(NC5CCN(S(C)(=O)=O)CC5)ncc4C(F)(F)F)c3)c(Cl)c2F)C1` [Example 270, 4-(1-(2-Chloro-3-fluoro-4-((3-methylazetidin-1-yl)methyl)phenyl)-1H-imidazol-4-yl)-N-(1-(methylsulfonyl)piperidin-4-yl)-5-(trifluoromethyl)pyrimidin-2-amine], which IC50 is on record?
A: ≤ 50 nM

Q: With `Cc1cc(CN(C)C)ccc1-n1cnc(-c2nc(NC3CCN(S(C)(=O)=O)CC3)ncc2C(F)(F)F)c1` [Example 271, 4-(1-(4-((Dimethylamino)methyl)-2-methylphenyl)-1H-imidazol-4-yl)-N-(1-(methylsulfonyl)piperidin-4-yl)-5-(trifluoromethyl)pyrimidin-2-amine] as the compound, how does the IC50 read?
A: ≤ 50 nM

Q: How did the IC50 turn out when `CNCc1ccc(-n2cnc(-c3nc(NC4CCN(S(C)(=O)=O)CC4)ncc3C(F)(F)F)c2)c(C)c1` [Example 272, 4-(1-(2-Methyl-4-((methylamino)methyl)phenyl)-1H-imidazol-4-yl)-N-(1-(methylsulfonyl)piperidin-4-yl)-5-(trifluoromethyl)pyrimidin-2-amine] was run?
A: ≤ 50 nM

Q: Which IC50 does the source give for `CCNC(C)c1ccc(-n2cnc(-c3nc(NC4CCN(S(C)(=O)=O)CC4)ncc3C(F)(F)F)c2)c(Cl)c1` (centres unmarked) [Example 273, 4-(1-(2-Chloro-4-(1-(ethylamino)ethyl)phenyl)-1H-imidazol-4-yl)-N-(1-(methylsulfonyl)piperidin-4-yl)-5-(trifluoromethyl)pyrimidin-2-amine] here?
A: ≤ 50 nM

Q: With `CC(c1ccc(-n2cnc(-c3nc(NC4CCN(S(C)(=O)=O)CC4)ncc3C(F)(F)F)c2)c(Cl)c1)N1CCC1` (centres unmarked) [Example 274, 4-(1-(4-(1-(Azetidin-1-yl)ethyl)-2-chlorophenyl)-1H-imidazol-4-yl)-N-(1-(methylsulfonyl)piperidin-4-yl)-5-(trifluoromethyl)pyrimidin-2-amine] as the compound, how does the IC50 read?
A: ≤ 50 nM

Q: With `Cc1nc(-c2nc(NC3CCN(S(C)(=O)=O)CC3)ncc2C(F)(F)F)cn1-c1ccc(CN(C)C)cc1F` [Example 279, 4-(1-(4-((Dimethylamino)methyl)-2-fluorophenyl)-2-methyl-1H-imidazol-4-yl)-N-(1-(methylsulfonyl)piperidin-4-yl)-5-(trifluoromethyl)pyrimidin-2-amine] as the compound, how does the IC50 read?
A: ≤ 50 nM
